# Measurements published in article PMC7563222, “Recognition of Dimeric Lewis X by Anti-Dimeric Le^x Antibody SH2” (Vaccines, 2020).
# Columns and labels:
# mAb SH2 [1] = assay: Indirect titration ELISA of SH2 ascites against coated glycoconjugates; type: binding, mouse
# Experimental: MaxiSorp NUNC 96-well enzyme-linked immunosorbent assay (ELISA) microtiter plate (Thermo Fisher Scientific) was coated with a dilution of glycoconjugates 1–5 and BSA (100 μL per well, […]) in a 10 mM phosphate-buffered saline (PBS) solution at pH 7.1. The plate was covered with sealing tape and incubated at 4 °C overnight. The antigen solution was discarded, and the plate was washed (using ELx405 auto plate washer, 5 × 15 s) with a 10 mM PBS buffer at pH 7.3 containing 0.05% Tween 20. The plate was blocked with 0.05% skim milk in 10 mM PBS (300 μL per well) and incubated for 1 h at 37 °C. The plate was then washed with 10 mM PBS-0.05% Tween 20. A 1:100 dilution of SH2 ascites was prepared and 146 μL of the dilution was distributed in the wells corresponding to the primary dilution. All other wells received 100 μL of the 10 mM PBS-0.05% Tween 20 pH 7.3 buffer. In-plate serial dilutions were performed in which 46 μL of the primary dilution was pipetted downward along the rows. The well contents were mixed by rinsing the pipette tips (7×). Lastly, 46 μL of the mAb solution was removed and discarded from the wells, which received the final solution of mAb (final volume in all wells, 100 μL). The last row of the 96-well plate was used as the blank control. MAb SH2 ascites were not pipetted into these wells, rather 100 μL of 10 mM PBS-0.05% Tween 20 was added. The plate was incubated for 2 h at 23 °C (in the dark). The plate was subsequently washed using the plate washer with PBS-0.05% Tween 20. A dilution of commercially available horseradish peroxidase labeled goat anti-mouse antibody (Mandel Scientific) (1:5000 in 10 mM PBS-0.05% Tween 20, 100 μL per well) was added to each well. After 1 h of incubation at 23 °C (in the dark), the plate was washed with PBS-0.05% Tween 20. A solution of the chromogenic substrate 3,3′,5,5′-tetramethylbenzidine (TMB) (Mandel Scientific) (100 μL per well) was added. After a 10 min incubation period at 23 °C (in the dark), 100 μL of 5% Phosphoric Acid stop solution was added to the wells to quench the reaction. The absorbance values were read at 450 nm employing a PowerWave XS plate reader. All samples were prepared in triplicate. The absorbance values were plotted against an increasing serum dilution. The values were fitted to a 4-parameter logistics sigmoidal equation: y = y0 + a/[1 + (x/x0)^b] using Sigma Plot®® 10.0.
# mAb SH2 [2] = assay: Competitive ELISA: inhibition of mAb SH2 binding to immobilized (DimLe^x)16-BSA conjugate 1; design: species or system mouse; details: (DimLe^x)16-BSA 1 immobilized; SH2 serum dilution 1:500 (Figure 5)
# Experimental: A MaxiSorp NUNC 96-well ELISA microtiter plate was coated with a dilution of the (DimLe^x)16-BSA conjugate 1 (100 μL per well, 5 μg/mL) in a 10 mM PBS solution at pH 7.1. The plate was covered with sealing tape and incubated at 4 °C overnight. The antigen solution was discarded, and the plate was washed (using ELx405 auto plate washer, 5 × 15 s) with a 10 mM PBS buffer at pH 7.3 containing 0.05% Tween 20. In 1.5 mL Eppendorf tubes, 175 μL dilutions of competitors (concentration ranging from 0.632 mg/mL to 2 mg/mL in 10 mM PBS-0.05% Tween 20) were incubated for 1 h at 23 °C (in the dark) with 175 μL of a solution of SH2 ascites (1:500 dilution in 10 mM PBS-0.05% Tween 20). At the same time, the plate was blocked with 0.05% skim milk in PBS (300 μL per well). After 1 h of incubation at 37 °C, the plate was washed with 10 mM PBS-0.05% Tween 20. Each well then received 100 μL of the competitor-mAb mixture. Three wells were used as the blank control in which the competitor-mAb mixture was not added, rather received 100 μL of 10 mM PBS-0.05% Tween 20. The plate was incubated for 3 h at 23 °C (in the dark). The plate was subsequently washed using the plate washer with PBS-0.05% Tween 20. A dilution of commercially available horseradish peroxidase labeled goat anti-mouse antibody (1:5000 in 10 mM PBS-0.05% Tween 20, 100 μL per well) was added to each well. After 1 h of incubation at 23 °C (in the dark), the plate was washed with 10 mM PBS-0.05% Tween 20. A solution of the chromogenic substrate TMB (100 μL per well) was added. After a 10 min incubation period at 23 °C (in the dark), 100 μL of 5% Phosphoric Acid stop solution was added to the wells to quench the reaction. The absorbance values were read at 450 nm employing a PowerWave XS plate reader. All samples were prepared in triplicate. The absorbance values were plotted as the percentage inhibition against an increasing concentration of competitor, calculated using wells containing no competitor as the reference point. The values were fitted to a 4-parameter logistics sigmoidal equation: y = y0 + a/[1 + (x/x0)^b] using Sigma Plot 10.0. The concentration of each analogue required for 50% inhibition (IC50) of Le^x-SH2 binding and the corresponding changes in free energy Δ(ΔG) of binding (kcal·mol^−1) using DimLe^xOPr 6 (Table 1) or Le^xOMe 7 (Table 2) as the reference were calculated.
Substance,Titration curve of SH2 (in words) (mAb SH2 [1]; coating with 3 µg/mL of the conjugate (Figure S1)),Inhibition of SH2 binding to (DimLe^x)16-BSA by glycoconjugates as soluble inhibitors (in words) (mAb SH2 [2]),"Binding of SH2 to coated antigen (titration, in words) (mAb SH2 [1]; antigens coated at 10 μg/mL, 2 and 5 also at 20 µg/mL (not shown))"
(DimLe^x)16-BSA [compound 1],did not reach maximum optical density,able to inhibit binding,–
(Le^x)35-BSA [compound 4],–,did not,weakly binds
